Source: patent publication US5693492A, “DNA encoding glutamate gated chloride channels” (priority 1995, dated 1997)

Target: T1, Dros GluCl (Drosophila melanogaster, UniProt Q94900, I27V/K241R)
T1 construct: Clone pDros GluCl was linearized by digestion with the restriction endonuclease SalI; expressed in transfected cells; host or cells: Xenopus laevis oocytes injected with in vitro transcribed Dros GluCl RNA
Assay: cell-based
Conditions: for Sensitivity of oocytes injected with Dros GluCl RNA (in words): tested at concentrations of 1 mM or higher; for Reversibility of activated current (in words): after washing drug from the bath, IVMPO4 observed for up to 10 minutes
Experimental: Clone pDros GluCl was linearized by digestion with the restriction endonuclease SalI. In vitro RNA was synthesized from 0.5 μg of this plasmid in a reaction containing 40 mM Tris-HCl, pH 7.5; 6 mM MgCl2; 2 mM Spermidine; 10 mM NaCl; 10 mM DTT; 0.05 mg/ml Bovine Serum Albumin; 2 units/ul RNasin; 800 μM each ATP, CTP, and UTP; 200 μMGTP; 800 μM m7G(5')ppp(5')G; 5 μCi ^32 P-CTp; and 50 units T3 RNA polymerase in a final volume of 50 μl. The reaction was incubated for 3 hours at 37° C. followed by an additional 15 minutes incubation with 20 units RNase free DNase and extraction with phenol, phenol:chloroform, and chloroform. The RNA was precipitated with 1/10 volume 3M sodium acetate and 2.5 volumes 100% ethanol, stored at -20° C. for 16 hours, washed with 70% ethanol and resuspended in water at a concentration of 1 mg/ml for injection into Xenopus laevis oocytes.
Xenopus laevis oocytes were prepared and injected using standard methods previously described and known in the art [Arena, J. P., Liu, K. K., Paress, P. S. & Cully, D. F. Mol. Pharmacol. 40, 368-374 (1991); Arena, J. P., Liu, K. K., Paress, P. S., Schaeffer, J. M. & Cully, D. F. Mol. Brain Res. 15, 339-348 (1992)]. Adult female Xenopus laevis were anesthetized with 0.17% tricaine methanesulfonate and the ovaries were surgically removed and placed in a dish consisting of (mM): NaCl 82.5, KCl 2, MgCl2 1, CaCl2 1.8, HEPES 5 adjusted to pH 7.5 with NaOH (OR-2). Ovarian lobes were broken open, rinsed several times, and gently shaken in OR-2 containing 0.2% collagenase (Sigma, Type 1A) for 2-5 hours. When approximately 50% of the follicular layers were removed, Stage V and VI oocytes were selected and placed in media consisting of (mM): NaCl 86, KCl 2, MgCl2 1, CaCl2 1.8, HEPES 5, Na pyruvate 2.5, theophylline 0.5, gentamicin 0.1 adjusted to pH 7.5 with NaOH (ND-96) for 24-48 hours before injection. Oocytes were injected with 50 nl of Dros GluCl RNA (0.01-1 mg/ml). Control oocytes were injected with 50 nl of water. Oocytes were incubated for 2-10 days in ND-96 before recording. Incubations and collagenase digestion were carried out at 18° C.
Recordings were made at room temperature in standard frog saline consisting of (mM): NaCl 115, KCl 2, MgCl2 1, CaCl2 1.8, HEPES 10, adjusted to pH 7.5 with NaOH. Oocytes were voltage-clamped using a standard two microelectrode amplifier (Dagan 8500 or TEV-200, Minneapolis, Minn.). Pipettes were filled with 3M KCl and had resistances between 0.5-3.0 megaohms. A plexiglass recording chamber (volume 200 μl) was constantly perfused at a rate of 10 ml/min. The recording chamber was connected to ground with a Ag/AgCl electrode. Data were acquired and analyzed using PCLAMP with a TL-1 interface (Axon Instruments, Foster City, Calif.). Membrane current at a holding potential of -80 mV was recorded. The amplitude of drug-sensitive current was determined by subtracting the holding current at -80 mV from the peak current obtained in the presence of drug. Data were filtered at 30 Hz and sampled at 16.6 Hz. Current/voltage relationships (I/V) and reversal potentials (Erev) were determined using a 1-3 sec voltage ramp over the voltage range of -110 to +80 mV. For the ramps, data were filtered at 0.3-3 kHz and sampled at 160 Hz. Current in drug free solution was subtracted from current in the presence of drug to obtain drug-sensitive current/voltage relationships.

T1 sequence (Q94900 23-456 I27V/K241R/S345N): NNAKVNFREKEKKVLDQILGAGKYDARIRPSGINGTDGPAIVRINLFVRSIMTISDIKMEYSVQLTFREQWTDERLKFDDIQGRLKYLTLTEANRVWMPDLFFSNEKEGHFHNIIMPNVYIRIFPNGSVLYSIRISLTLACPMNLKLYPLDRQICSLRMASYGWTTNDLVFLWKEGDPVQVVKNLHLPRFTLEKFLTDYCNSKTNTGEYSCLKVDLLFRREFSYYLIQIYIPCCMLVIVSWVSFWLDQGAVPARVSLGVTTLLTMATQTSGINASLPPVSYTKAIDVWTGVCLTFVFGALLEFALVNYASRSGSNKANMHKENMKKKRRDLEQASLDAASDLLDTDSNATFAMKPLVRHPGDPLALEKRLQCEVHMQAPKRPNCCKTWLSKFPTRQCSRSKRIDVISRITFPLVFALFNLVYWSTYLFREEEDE

picrotoxin
Block of the current elicited with IVMPO4 (500 μM picrotoxin, oocytes expressing Dros GluCl): 13%

CN[C@H](CC(=O)O)C(=O)O [N-methyl-D-aspartic acid]
Sensitivity of oocytes injected with Dros GluCl RNA (in words): insensitive

CC[C@H](C)[C@H]1O[C@]2(CC[C@@H]1C)C[C@@H]1C[C@@H](C/C=C(\C)[C@H](O[C@H]3C[C@H](OC)[C@@H](O[C@H]4C[C@H](OC)[C@@H](OP(=O)(O)O)[C@H](C)O4)[C@H](C)O3)[C@@H](C)/C=C/C=C3\CO[C@@H]4[C@H](O)C(C)=C[C@@H](C(=O)O1)[C@]34O)O2 [IVMPO4]
Current activated, % of maximal current (10 nM IVMPO4, oocytes expressing Dros GluCl): 20-40% | Reversibility of activated current (in words): irreversible | Activation of membrane current (in words) (oocytes expressing Dros GluCl): directly activated current | Concentration giving maximal activation of current (oocytes expressing Dros GluCl): 1 µM

N[C@@H](CCC(=O)O)C(=O)O [glutamate]
EC50: 30 µM

NC(C(=O)O)c1cc(O)no1 (centres unmarked) [ibotenate]
Activation of membrane current (in words) (oocytes expressing Dros GluCl): reversibly activated | Concentration giving maximal activation of current (oocytes expressing Dros GluCl): 100 µM

NCCCC(=O)O [GABA]
Sensitivity of oocytes injected with Dros GluCl RNA (in words): insensitive

NCCc1c[nH]cn1 [histamine]
Sensitivity of oocytes injected with Dros GluCl RNA (in words): insensitive

N[C@@H](CC(=O)O)C(=O)O [aspartate]
Emax at 1000 µM (read-out: % of maximal activation): 8%

C=C(C)C1C(=O)c2c3c(cc4c5c(n1c24)C1(C)C(CCC2C(C)(/C=C/C=C(\C)C(=O)O)C(O)CCC21C)C5)C1=CC(C)(C)OC(C)(C)C1C3O (centres unmarked) [Compound-1]
Time for current to fully return to baseline (after Compound-1, oocytes expressing Dros GluCl): up to 10 minutes | Reversibility of activated current (in words): slowly reversible | Activation of membrane current (in words) (oocytes expressing Dros GluCl): directly activated membrane current

NCC(=O)O [glycine]
Sensitivity of oocytes injected with Dros GluCl RNA (in words): insensitive

C=C(C)[C@H]1CN[C@H](C(=O)O)[C@H]1CC(=O)O [kainate]
Sensitivity of oocytes injected with Dros GluCl RNA (in words): insensitive
